Measured values reported in ChEMBL document CHEMBL1157286, “Schisandrene, a dibenzocyclooctadiene lignan from Schisandra chinensis: structure-antioxidant activity relationships of dibenzocyclooctadiene lignans” (J Nat Prod, 2006).
Calls of active or inactive are those of the source. No cut-off for these calls is given here.

Key:
HL-60 [1] = test: Cytotoxicity against human HL60 cells by XTT assay; type: functional, cell-based
HL-60 [2] = test: Antioxidant activity in human HL60 cells assessed as inhibition of TPA-stimulated hydrogen peroxide induced DCFH-DA oxidation by fluorometric microplate assay; type: functional, cell-based
Vero = test: Cytotoxicity against african green monkey Vero cells upto 48 uM; type: cell-based; details: chlorocebus sabaeus
LLC-PK1 = test: Cytotoxicity against pig LLC-PK1 cells upto 48 uM; type: cell-based, Sus scrofa

SMILES | IC50 (HL-60 [2]) [µM] | Activity (HL-60 [1]) | Activity (HL-60 [2]) | IC50 (HL-60 [1]) [µM] | Activity (Vero) | Activity (LLC-PK1)
COc1cc2c(c(OC)c1OC)-c1c(cc3c(c1OC)OCO3)C[C@H](C)[C@](C)(O)C2 |  | inactive | inactive |  |  | 
COc1cc2c(c(OC)c1OC)-c1c(cc(OC)c(OC)c1OC(=O)c1ccccc1)CC(C)C(C)(O)C2 (centres undefined) [BENZOYLGOMISIN H] |  |  | inactive | 41.2 | Not Active | Not Active
COc1cc2c(c(OC)c1OC)-c1c(cc3c(c1OC)OCO3)C[C@H](C)[C@@](C)(O)C2 [GOMISIN A] |  |  |  |  | Not Active | Not Active
C/C=C(/C)C(=O)O[C@H]1c2cc(OC)c(OC)c(OC)c2-c2c(cc3c(c2OC)OCO3)C[C@H](C)[C@]1(C)O [GOMISIN B] |  |  |  |  | Not Active | Not Active
C=C1[C@H](C)Cc2cc3c(c(OC)c2-c2c(cc4c(c2OC)OCO4)[C@H]1OC(=O)c1ccccc1)OCO3 [SCHISANDRENE] | 2.8 |  |  | 55.8 | Not Active | Not Active
COc1cc2c(c(OC)c1OC)-c1c(cc(OC)c(OC)c1OC)C[C@H](C)[C@H](C)C2 [SCHISANDRIN A] |  | inactive | inactive |  | Not Active | Not Active
COc1c2c(cc3c1-c1c(cc4c(c1OC)OCO4)C[C@H](C)[C@H](C)C3)OCO2 [SCHISANDRIN C] |  |  | inactive | 41.2 | Not Active | Not Active
COc1cc2c(c(OC)c1OC)-c1c(cc(OC)c(OC)c1OC)C[C@](C)(O)[C@@H](C)C2 [SCHIZANDRIN] |  | inactive | inactive |  | Not Active | Not Active
COc1cc2c(c(OC)c1OC)-c1c(cc3c(c1OC)OCO3)C[C@H](C)[C@H](C)C2 [WUWEIZISU B] |  |  | inactive | 52.4 | Not Active | Not Active

Now from value to molecule, other results behind:

IC50 (HL-60 [2]) [µM] | SMILES | Activity (HL-60 [1]) | Activity (HL-60 [2]) | IC50 (HL-60 [1]) [µM] | Activity (Vero) | Activity (LLC-PK1)
81.5 | C/C=C(/C)C(=O)Oc1c(OC)c(OC)cc2c1-c1c(cc(OC)c(OC)c1OC)CC(C)(O)C(C)C2 (centres undefined) [ANGELOYLGOMISIN] |  |  | 45.3 | Not Active | Not Active
10.2 | O=C1O[C@H]([C@@H](O)CO)C(O)=C1O [ASCORBIC ACID] | inactive |  |  |  | 
> 116 | C/C=C(\C)C(=O)O[C@H]1c2cc(OC)c(OC)c(OC)c2-c2c(cc3c(c2OC)OCO3)C[C@H](C)[C@]1(C)O [GOMISIN B] | inactive |  |  |  | 
38.2 | COc1cc2c(c(OC)c1OC)-c1c(cc3c(c1OC)OCO3)[C@H](OC(=O)c1ccccc1)[C@@](C)(O)[C@@H](C)C2 [GOMISIN G] |  |  | 48.3 | Not Active | Not Active
> 155 | COc1cc2c(c(O)c1OC)-c1c(cc(OC)c(OC)c1OC)CC(C)C(C)C2 (centres undefined) [GOMISIN K3] |  |  | 56.2 | Not Active | Not Active
2.3 | CC(Cc1ccc(O)c(O)c1)C(C)Cc1ccc(O)c(O)c1 (centres undefined) [NORDIHYDROGUAIARETIC ACID] |  |  | 12.2 |  | 
> 125 | C/C=C(\C)C(=O)Oc1c(OC)c(OC)cc2c1-c1c(cc(OC)c(OC)c1OC)C[C@](C)(O)[C@@H](C)C2 [TIGLOYLGOMISIN H] |  |  | 44.3 | Not Active | Not Active
3.6 | Cc1c(C)c2c(c(C)c1O)CCC(C)(C(=O)O)O2 (centres undefined) [TROLOX] | inactive |  |  |  | 
